Where two headings read alike, the source gives them in different places.
B1: IFN-γ: recombinant human IFN-γ (R&D Systems, 285-IF-100/CF) (protein, UniProt P01579 24-161, looked up)
Interferon gamma: QDPYVKEAENLKKYFNAGHSDVADNGTLFLGILKNWKEESDRKIMQSQIVSFYFKLFKNFKDDQSIQKSVETIKEDMNVKFFNSNKKKRDDFEKLTNYSVTDLNVQRKAIHELIQVMAELSPAAKTGKRKRSQMLFRG

How the values were obtained:
[1] = tested on: T. gondii tachyzoites (ME49-FLUC) in HeLa cells; experiment: Luciferase based growth assay, multi-point dose response; format: cell-based; details: Toxoplasma gondii, 72 h
[2] = tested on: GFP-LC3 recruitment to the T. gondii parasite-containing vacuole in GFP-LC3 HeLa cells; experiment: Image based GFP-LC3 recruitment assay; format: cell-based, Toxoplasma gondii; details: IFN-γ 50 U/mL, HeLa cells activated 24 h, 6 h post-infection

Row | Molecule | EC50 ([1]; read-out: EC50+ IFN-γ) | EC50 ([1]; read-out: EC50 Naïve) | GFP-LC3 positive parasite-containing vacuoles [2]
1 | CCc1nc(N)nc(N)c1-c1ccc(Cl)cc1 [Pyrimethamine] | 200 nM | 160 nM | 
2 | B1 |  |  | 12.4%
